A short description of data set [1]: In vitro PTX release: hydrolysis of PTX succinic acid in PBS (HPLC). Type of data set: physicochemical. The conditions noted are these: for half-life: PBS, 37° C.; for PTX-succinate remaining intact: after 24 hours. As to the method: In Vitro PTX Release. Hydrolytic studies of PTX succinic acid were carried out at 37° C. in PBS containing 0.01% DMSO and 0.1% Tween 80 at pH 7.4 and pH 6.5. 5.33 μM of PTX-succinic acid was dissolved in a 5 ml of medium and kept continuously stirring at 150 rpm/min. 50 μL of sample was removed at predetermined time intervals of 0, 24, 48, 72 and 96 hours and replaced with 50 μL of fresh media. Removed samples were mixed with 50% of acetonitrile and analyzed using Agilent 1290 HPLC system with Agilent 2.1×50 mm C18 column and mobile phase consisting of 60% ammonium formate and 40% acetonitrile. Concentration of PTX-SA and free PTX were determined using calibration curves.
The hydroxyl group at the C-2′ position is necessary for paclitaxel's anticancer activities. Therefore, the succinate ester must hydrolyze to achieve desired antitumor responses (41). We measured paclitaxel release from PTX-succinate in PBS at 37° C. in both neutral pH and the slightly acidic conditions (pH˜6.5) commonly observed in the tumor microenvironments. Disappearance of the PTX succinate peak and appearance of PTX peak was quantified using HPLC. […] After 24 hours, nearly 82% of PTX-succinate remained intact in acidic conditions, while 54% remained in the neutral condition. […] In contrast at the more acidic pH, paclitaxel continued its accumulation in the release media, with 60% of initial dose observed at 96 hours.

For data set [2], the system named is U87 tumor. Nature of the data set: Tumor inhibition and survival after intratumoral or intravenous aldoxorubicin. Type of data set: in vivo, nude mice. The conditions noted are these: intratumoral 10.5 mg/kg; compared to saline and intravenous aldoxorubicin. The text has this:
FIGS. 14A-14D show the impact of intratumoral anchoring and local tumor release of a chemotherapeutic agent (aldoxorubicin) functionalized with a maleimide tissue binding moiety. FIG. 14A plots the percent change in tumor volume as a function of days after injection for mice treated with saline injection alone (control), intravenous injection of aldoxorubicin, and intratumoral injection of aldoxorubicin. FIG. 14B is a plot showing the probability of survival for mice treated with saline injection alone (control), intravenous injection of aldoxorubicin, and intratumoral injection of aldoxorubicin. FIG. 14C is a plot comparing tumor volume 7 days after treatment with saline injection alone (control), treatment with intravenous injection of aldoxorubicin, and treatment with intratumoral injection of aldoxorubicin. FIG. 14D is a plot comparing tumor volume 14 days after treatment with saline injection alone (control), treatment with intravenous injection of aldoxorubicin, and treatment with intratumoral injection of aldoxorubicin.
In a further proof-of-principle study, aldoxorubicin was used to validate the concept of anchoring (and subsequent local tumor release) of a chemotherapeutic agent functionalized with a maleimide tissue binding moiety. […] Tumor size and weight were measured at varying intervals following injection. […]

The nature of data set [3]: Aqueous solubility compared to paclitaxel. It counts as physicochemical.
In data set [4] the test system is KPC 4662 murine pancreatic tumor. Nature of the data set: In vivo assessment of PTX-sNHS induced apoptosis (cleaved caspase 3 staining). Details: species or system C57BL/6 mice. Conditions: 72 hours after single intratumoral injection, 20 mg/kg.
Source text: To assess the ability of intratumoral depots to release free paclitaxel and induce apoptotic tumor cell death, ectopic pancreatic tumor model was developed by subcutaneous inoculation of approximately 1*10^6 KPC 4662 murine pancreatic tumor cells in 1:1 PBS/matrigel (Corning/cat #354234) solution on the dorsal flanks of 8 week old female albino C57BL/6 mice (Charles River). Once the tumors were approximately 100 mm^3 in volume, animals were randomly divided into four groups to receive either no treatment or single intratumoral injection of vehicle (50% NMP: alfa aesar, #AA44063-K2, 50% Saline: cat #470302-026, VWR), free paclitaxel (Medkoo, cat #100690, 20 mg/kg) and paclitaxel-sNHS (n=3/group, 20 mg/kg). […] For quantification of apoptosis, CC-3-stained vs hematoxylin-stained areas were measured with respect to total tumor area (45, 46).
To investigate whether intratumoral injection of TRAP paclitaxel has therapeutic efficacy in vivo, we studied paclitaxel-induced apoptosis in the fibrous, syngeneic KPC 4662 pancreatic adenocarcinoma mouse model. […] For quantification of apoptosis, whole tissue sections were scanned to detect CC-3 positive areas and quantified to assess the percent of whole tumor area undergoing apoptosis. […] Quantification of apoptosis was performed by computationally separating CC-3 stained from hematoxylin stained areas (45). […]
Data set [5] has as its system U87 tumor. Put plainly: Intratumoral anchoring of Cy7-maleimide (IVIS fluorescence). Type of data set: in vivo, nude mice. The conditions noted are these: 50 uL of 0.2 mM, 1 week after injection. Here is the method:
FIG. 13 illustrates the intratumoral anchoring of Cy7-maleimide after one week.
To investigate whether active maleimide molecules can anchor to tissue in a tumor, nude mice were injected subcutaneously with U87 tumor cells mixed with Matrigel. Once tumor reached 100 mm^3, Cy7-maleimide (50 uL of 0.2 mM) was injected intratumorally and monitored for fluorescence over 1 week using an IVIS imager. ICG/ICG excitation and emission filters were used for all IVIS images. […] This validated that anchorable drug compounds containing a maleimide tissue binding moiety could efficiently react with thiol moieties present in proteins found within tumors following intratumoral injection.

In the next data set the test system is dermal tissue. Nature of the data set: Intradermal anchoring of Cy7-maleimide (IVIS fluorescence). Type of data set: in vivo, CD-1 mice. As to the method: FIG. 12 is a plot showing the percent of the initial injection dose (% ID) maintained one day and one week following injection of Cy7-maleimide alone, Cy7-maleimide plus tris(2-carboxyethyl)phosphine (TCEP), and Cy7-maleimide plus mercaptoethanol (MCE).
To investigate whether maleimide molecules can anchor to dermal tissue by binding to available thiol groups, CD-1 mice were injected intradermally with Cy7-maleimide (50 uL of 0.2 mM) and monitored for fluorescence over 1 week using an IVIS imager. ICG/ICG excitation and emission filters were used for all IVIS images. Cy7-maleimide plus TCEP was used to attempt to increase free thiols by breaking disulfide bonds.

For “2′-O-succinyl paclitaxel [PTX-succinate]”, the results for the half-life in data set [1] (neutral pH) and in data set [1] (pH 6.5) were around 37 h and around 56 h, respectively. For the same molecule, the “free paclitaxel in release media, of initial dose” value in data set [1] (acidic pH (6.5), 96 hours) is listed as 60%. Further, the PTX-succinate remaining intact in data set [1] (acidic conditions (pH 6.5)) was around 82%; in data set [1] (neutral condition), 54%. In addition, in data set [1] (neutral pH, 96 hours), the “free paclitaxel released (maximum)” value is listed as 32%.

For the molecule `COc1cccc2c1C(=O)c1c(O)c3c(c(O)c1C2=O)C[C@@](O)(/C(CO)=N/NC(=O)CCCCCN1C(=O)C=CC1=O)C[C@@H]3O[C@H]1C[C@H](N)[C@H](O)[C@H](C)O1` [aldoxorubicin], in the data set with U87 tumor [2], the survival probability result is recorded as “improved” and the tumor inhibition entry is on record as “improved”.

As to `CC(=O)O[C@H]1C(=O)[C@@]2(C)[C@H]([C@H](OC(=O)c3ccccc3)[C@]3(O)C[C@H](OC(=O)[C@H](O)[C@@H](NC(=O)c4ccccc4)c4ccccc4)C(C)=C1C3(C)C)[C@]1(OC(C)=O)CO[C@@H]1C[C@@H]2O` [paclitaxel], in data set [3], the aqueous solubility result was “poorly soluble”. The “apoptotic area (CC-3 stained), of total tumor area” value in data set [4] was found to be 27%. For the same molecule, the “necrosis, of tumor area” value in data set [4] (color saturation analysis) is on record as around 30%.

`C[N+]1=C(C=CC2=CC(=CC=C3N(CCCCCC(=O)NCCN4C(=O)C=CC4=O)c4ccccc4C3(C)C)CCC2)C(C)(C)c2ccccc21.[Cl-]` [Cy7-maleimide, cyanine 7 maleimide]: the injection dose maintained result in the data set on U87 tumor [5] is “approximately 18%”; with dermal tissue (intradermal, 50 uL of 0.2 mM, after 1 week), “approximately 10%”. Also, in the data set with dermal tissue (intradermal injection, monitored over 1 week), the “skin irritation or skin toxicity” value is reported as “No skin irritation or skin toxicity was observed”.

The values above are taken from patent publication US20230390403A1, “COMPOSITIONS AND METHODS FOR DRUG DELIVERY” (North Carolina State University, priority 2020, published 2023).
